Test results as given in BindingDB's records for doi:10.1016/0960-894X(96)00010-8 (1996).

Test: Inhibition of voltage sensitive calcium channel of embryonic chick dorsal root ganglion (DRG) cells

## COc1ccc(OC)c(-n2c(N)nc3cc(C(F)(F)F)ccc32)c1 [1-(2,5-Dimethoxy-phenyl)-5-trifluoromethyl-1H-benzoimidazol-2-ylamine]
  IC50: 32 µM
